Assay results taken from PubChem BioAssay AID1259411 (Chemical Carcinogenesis Research Information System (CCRIS), 2018).
Active and inactive are the calls of the source. The rule behind the calls is not given here.

Test system: rodent carcinogenicity bioassays, tumor incidence
Experiment: CCRIS carcinogenicity studies
Details: Dose: 0, Dose: 0
Summary of the method: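 NCI-built, expert-reviewed records of carcinogenicity and related test outcomes (mutagenicity, tumor promotion/inhibition) compiled from published and report sources, historical span 1985-2011, not updated.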

CN(CCCC(=O)c1cccnc1)N=O
carcinogen call (Species: HAMSTER, Strain/Sex: SYRIAN/FEMALE, Route: INTRATRACHEAL, 0.05, 5, 50 MG/KG ONCE ADMINISTERED TO MOTHERS ON DAY 15 OF GESTATION (STUDY DURATION: 59 WK), 0.05, 5, 50 MG/KG ONCE ADMINISTERED TO MOTHERS ON DAY 15 OF GESTATION (STUDY DURATION: 59 WK), Tumor Site: Type of Lesion: NASAL CAVITY: ADENOCARCINOMA, ADRENAL GLAND: TUMOR, PANCREAS: ADENOMA, Tumor Site: Type of Lesion: NASAL CAVITY: ADENOCARCINOMA, ADRENAL GLAND: TUMOR, PANCREAS: ADENOMA): active; positive | carcinogen call (Species: HAMSTER, Strain/Sex: SYRIAN/FEMALE, Route: SUBCUTANEOUS, 1, 5, 10, 20 MG/KG ONCE ADMINISTERED TO MOTHERS ON DAY 15 OF GESTATION (STUDY DURATION: 59 WK), 1, 5, 10, 20 MG/KG ONCE ADMINISTERED TO MOTHERS ON DAY 15 OF GESTATION (STUDY DURATION: 59 WK), Tumor Site: Type of Lesion: NASAL CAVITY: ADENOCARCINOMA, ADRENAL GLAND: TUMOR): active; positive | carcinogen call (Species: HAMSTER, Strain/Sex: SYRIAN/FEMALE, Route: TRANSPLACENTAL, 50 MG/KG IN DISTILLED WATER ADMINISTERED INTRATRACHEALLY TO MOTHERS ON DAY 15 OF GESTATION (STUDY DURATION: 48 WK), Tumor Site: Type of Lesion: ADRENAL GLAND: TUMOR, COLON: TUMOR, LYMPHOID TISSUE: LYMPHOMA, Tumor Site: Type of Lesion: ADRENAL GLAND: TUMOR, COLON: TUMOR, LYMPHOID TISSUE: LYMPHOMA): active; positive | carcinogen call (Species: HAMSTER, Strain/Sex: SYRIAN/MALE, Route: INTRATRACHEAL, 0.05, 5, 50 MG/KG ONCE ADMINISTERED TO MOTHERS ON DAY 15 OF GESTATION (STUDY DURATION: 59 WK), 0.05, 5, 50 MG/KG ONCE ADMINISTERED TO MOTHERS ON DAY 15 OF GESTATION (STUDY DURATION: 59 WK), Tumor Site: Type of Lesion: NASAL CAVITY: ADENOCARCINOMA, ADRENAL GLAND: TUMOR): active; positive | carcinogen call (Species: HAMSTER, Strain/Sex: SYRIAN/MALE, Route: SUBCUTANEOUS, 1, 5, 10, 20 MG/KG ONCE ADMINISTERED TO MOTHERS ON DAY 15 OF GESTATION (STUDY DURATION: 59 WK), 1, 5, 10, 20 MG/KG ONCE ADMINISTERED TO MOTHERS ON DAY 15 OF GESTATION (STUDY DURATION: 59 WK), Tumor Site: Type of Lesion: NASAL CAVITY: ADENOCARCINOMA, ADRENAL GLAND: TUMOR): active; positive | carcinogen call (Species: HAMSTER, Strain/Sex: SYRIAN/MALE, Route: TRANSPLACENTAL, 50 MG/KG IN DISTILLED WATER ADMINISTERED INTRATRACHEALLY TO MOTHERS ON DAY 15 OF GESTATION (STUDY DURATION: 48 WK), Tumor Site: Type of Lesion: NASAL CAVITY: TUMOR): active; positive | carcinogen call (Species: MOUSE, Strain/Sex: C3B6F1/FEMALE, Route: TRANSPLACENTAL, 100 MG/KG (0.5 MMOL) IN 0.9% STERILE SALINE ADMINISTERED INTRAPERITONEALLY ON DAYS 14, 16 AND 18 OF GESTATION (STUDY): inactive; negative | carcinogen call (Species: MOUSE, Strain/Sex: C3B6F1/MALE, Route: TRANSPLACENTAL, 100 MG/KG (0.5 MMOL) IN 0.9% STERILE SALINE ADMINISTERED INTRAPERITONEALLY ON DAYS 14, 16 AND 18 OF GESTATION (STUDY, Tumor Site: Type of Lesion: LIVER: HEPATOCELLULAR ADENOMA OR CARCINOMA): active; positive | carcinogen call (Species: MOUSE, Strain/Sex: C3H/HE/FEMALE, Route: INTRAPERITONEAL, 100 MG/KG (0.5 MMOL) IN 0.9% STERILE SALINE ONCE ON DAYS 14, 16 AND 18 OF PREGNANCY (STUDY DURATION: 24 WK), Tumor Site: Type of Lesion: LUNG: TUMOR): active; positive | carcinogen call (Species: MOUSE, Strain/Sex: STRAIN-A/FEMALE, Route: GAVAGE, 1, 2, 3 UMOL IN 0.1 ML COTTONSEED OIL 1/WK FOR 8 WK (STUDY DURATION: 26 WK), 1, 2, 3 UMOL IN 0.1 ML COTTONSEED OIL 1/WK FOR 8 WK (STUDY DURATION: 26 WK), Tumor Site: Type of Lesion: LUNG: ADENOMA): active; positive | carcinogen call (Species: MOUSE, Strain/Sex: STRAIN-A/FEMALE, Route: INTRAPERITONEAL, 1, 2, 3 UMOL IN 0.1 ML COTTONSEED OIL 1/WK FOR 8 WK (STUDY DURATION: 26 WK), 1, 2, 3 UMOL IN 0.1 ML COTTONSEED OIL 1/WK FOR 8 WK (STUDY DURATION: 26 WK), Tumor Site: Type of Lesion: LUNG: ADENOMA): active; positive | carcinogen call (Species: MOUSE, Strain/Sex: STRAIN-A/FEMALE, Route: INTRAPERITONEAL, 5, 20 UMOL TOTAL DOSE ADMINISTERED IN SUBDOSES 3/WK FOR 7 WK (STUDY DURATION: 37 WK), 5, 20 UMOL TOTAL DOSE ADMINISTERED IN SUBDOSES 3/WK FOR 7 WK (STUDY DURATION: 37 WK), Tumor Site: Type of Lesion: LUNG: TUMOR): active; positive | carcinogen call (Species: MOUSE, Strain/Sex: STRAIN-A/FEMALE, Route: INTRAPERITONEAL, 20 UMOL MOUSE (TOTAL DOSE) ADMINISTERED IN 0.1 ML SALINE 3/WK (TOTAL 20 INJECTIONS) (STUDY DURATION: 37 WK), Tumor Site: Type of Lesion: LUNG: ADENOCARCINOMA, ADENOMA): active; positive | carcinogen call (Species: MOUSE, Strain/Sex: STRAIN-A/FEMALE, Route: TRANSPLACENTAL, 100 MG/KG (0.5 MMOL) IN 0.9% STERILE SALINE ADMINISTERED INTRAPERITONEALLY ON DAYS 14, 16 AND 18 OF GESTATION (STUDY, Tumor Site: Type of Lesion: LUNG: TUMOR): active; positive | carcinogen call (Species: MOUSE, Strain/Sex: STRAIN-A/MALE, Route: TRANSPLACENTAL, 100 MG/KG (0.5 MMOL) IN 0.9% STERILE SALINE ADMINISTERED INTRAPERITONEALLY ON DAYS 14, 16 AND 18 OF GESTATION (STUDY): inactive; negative | carcinogen call (Species: MOUSE, Strain/Sex: SWISS/FEMALE, Route: INTRAPERITONEAL, 50 MG/KG IN STERILE SALINE ADMINISTERED ON POSTNATAL D 1, 3, 5, 7 AND 10 (STUDY DURATION: 15 MO), Tumor Site: Type of Lesion: LIVER: HEPATOCELLULAR ADENOMA OR CARCINOMA, LUNG: TUMOR): active; positive | carcinogen call (Species: MOUSE, Strain/Sex: SWISS/FEMALE, Route: TRANSPLACENTAL, 100 MG/KG (0.5 MMOL) IN 0.9% STERILE SALINE ADMINISTERED INTRAPERITONEALLY ON DAYS 15, 17 AND 19 OF GESTATION (STUDY): inactive; negative | carcinogen call (Species: MOUSE, Strain/Sex: SWISS/MALE, Route: INTRAPERITONEAL, 50 MG/KG IN STERILE SALINE ADMINISTERED ON POSTNATAL D 1, 3, 5, 7 AND 10 (STUDY DURATION: 15 MO), Tumor Site: Type of Lesion: LIVER: HEPATOCELLULAR ADENOMA OR CARCINOMA, LUNG: TUMOR): active; positive | carcinogen call (Species: MOUSE, Strain/Sex: SWISS/MALE, Route: TRANSPLACENTAL, 100 MG/KG (0.5 MMOL) IN 0.9% STERILE SALINE ADMINISTERED INTRAPERITONEALLY ON DAYS 15, 17 AND 19 OF GESTATION (STUDY): inactive; negative | carcinogen call (Species: RAT, Strain/Sex: F344/FEMALE, Route: GAVAGE, 11 MG/WK FOR A TOTAL DOSE OF 1.3 MMOL (STUDY DYRATION: 50 WK), Tumor Site: Type of Lesion: LIVER: TUMOR, LUNG: TUMOR, NASAL MUCOSA: TUMOR, Tumor Site: Type of Lesion: LIVER: TUMOR, LUNG: TUMOR, NASAL MUCOSA: TUMOR): active; positive | carcinogen call (Species: RAT, Strain/Sex: F344/FEMALE, Route: INTRAVESICULAR, 5.5 MG IN 0.2 ML ETHANOL: DEIONIZED WATER (1:3) 2/WK FOR 30 WK (TOTAL DOSE 1.5 MMOL) (STUDY DURATION: LIFESPAN), Tumor Site: Type of Lesion: LUNG: TUMOR, LIVER: TUMOR): active; positive | carcinogen call (Species: RAT, Strain/Sex: F344/FEMALE, Route: SUBCUTANEOUS, 1, 3, 9 MMOL/KG BW (TOTAL DOSE) WITH SUBDOSES GIVEN 3/WK FOR 20 WK WITH A 2 WK INTERRUPTION AFTER 7 WK (STUDY DURATIO, 1, 3, 9 MMOL/KG BW (TOTAL DOSE) WITH SUBDOSES GIVEN 3/WK FOR 20 WK WITH A 2 WK INTERRUPTION AFTER 7 WK (STUDY DURATIO, Tumor Site: Type of Lesion: NASAL CAVITY: TUMORS, LUNG: TUMORS, LIVER: TUMORS, Tumor Site: Type of Lesion: NASAL CAVITY: TUMORS, LUNG: TUMORS, LIVER: TUMORS): active; positive | carcinogen call (Species: RAT, Strain/Sex: F344/MALE, Route: MUCOUS MEMBRANE, 0.3 ML OF A 15 MMOL WATER SOLUTION 1/D 3 D/WK FOR 1 WK THEN 1/D 5 D/WK FOR WK 2-4 THEN 2/D 5 D/WK FOR WK 5-61 (STUDY, Tumor Site: Type of Lesion: LUNG: ADENOSQUAMOUS CARCINOMA, ADENOCARCINOMA, ADENOMA, NASAL CAVITY: CARCINOMA, PAPILLOMA, ADENOMA, ORAL CAVITY: PAPILL, Tumor Site: Type of Lesion: LUNG: ADENOSQUAMOUS CARCINOMA, ADENOCARCINOMA, ADENOMA, NASAL CAVITY: CARCINOMA, PAPILLOMA, ADENOMA, ORAL CAVITY: PAPILL): active; positive | carcinogen call (Species: RAT, Strain/Sex: F344/MALE, Route: ORAL, 0.5, 1, 5 PPM IN DRINKING WATER FOR DURATION OF STUDY (TOTAL DOSE: 0; 0.073; 0.17; 0.68 MMOL/KG) (STUDY DURATION: 128, 0.5, 1, 5 PPM IN DRINKING WATER FOR DURATION OF STUDY (TOTAL DOSE: 0; 0.073; 0.17; 0.68 MMOL/KG) (STUDY DURATION: 128, Tumor Site: Type of Lesion: NASAL CAVITY: TUMOR, LIVER: ADENOMA, HEPATOMA, LUNG: ADENOMA, ADENOCARCINOMA, ADENOSQUAMOUS CARCINOMA, SQUAMOUS CELL CAR, Tumor Site: Type of Lesion: NASAL CAVITY: TUMOR, LIVER: ADENOMA, HEPATOMA, LUNG: ADENOMA, ADENOCARCINOMA, ADENOSQUAMOUS CARCINOMA, SQUAMOUS CELL CAR): active; positive | carcinogen call (Species: RAT, Strain/Sex: F344/MALE, Route: SUBCUTANEOUS, 1, 3, 9 MMOL/KG BW (TOTAL DOSE) WITH SUBDOSES GIVEN 3/WK FOR 20 WK WITH A 2 WK INTERRUPTION AFTER 7 WK (STUDY DURATIO, 1, 3, 9 MMOL/KG BW (TOTAL DOSE) WITH SUBDOSES GIVEN 3/WK FOR 20 WK WITH A 2 WK INTERRUPTION AFTER 7 WK (STUDY DURATIO, Tumor Site: Type of Lesion: NASAL CAVITY: TUMORS, LUNG: TUMORS, LIVER: TUMORS, Tumor Site: Type of Lesion: NASAL CAVITY: TUMORS, LUNG: TUMORS, LIVER: TUMORS): active; positive
